Square brackets hold non-standard residues; d marks the D form. Peptide text beside a SMILES is read from it. PEG24 = NCCOCCOCCOCCOCCOCCOCCOCCOCCOCCOCCOCCOCCOCCOCCOCCOCCOCCOCCOCCOCCOCCOCCOCCOCCC(=O)O; Sar = CNCC(=O)O
Assays:
[1] = Solubility in water; type: physicochemical
[2] = test system: complement activation in factor B-depleted human sera; type: biochemical
Procedure: Peptides were diluted to 0.77 mM in factor B-depleted human sera (Complement Technologies, Inc.) and incubated for 1 hour at 37° C. These peptides were then diluted with GVBS^++ to equal 2.5/s serum, of which 0.25 ml was combined with 0.4 ml of GVBS^++ and 0.1 ml of sensitized sheep red blood cells (RBCs) and again incubated for 1 hour at 37° C. The procedure was stopped by the addition of 4.0 ml of GVBS^−−, centrifuged for 5 minutes at 1,620×g, and the absorbance of the supernatants was read at 412 nm in a spectrophotometer. The percent lysis of each sample was standardized to that of the serum only control.
The final concentration of peptide in factor B-depleted serum was 0.77 mM. Each peptide was evaluated in triplicate and the mean values are reported. […] In the hemolytic assay, soluble peptides are standardized to water and insoluble peptides standardized to DMSO.
Polar Assortant peptides were serially diluted in undiluted factor B-depleted human sera (Complement Technologies, Inc.) and incubated for 1 hour at 37° C. Water, GVBS^++ and DMSO were included as controls. These peptides were then diluted with GVBS^++ to equal 2.5/s serum, of which 0.25 ml was combined with 0.4 ml of GVBS^++ and 0.1 ml of sensitized sheep red blood cells (RBCs) and again incubated for 1 hour at 37° C. The procedure was stopped by the addition of 4.0 ml of GVBS^−−, centrifuged for 5 minutes at 1,620×g, and the absorbance of the supernatants was read at 412 nm in a spectrophotometer. The percent lysis of each sample was standardized to that of the serum only control.
The final concentration of peptide in factor B-depleted serum was 0.77 mM. […] In the hemolytic assay, soluble peptides were standardized to water and insoluble peptides standardized to DMSO.
The final concentration of peptide in factor B-depleted serum was 0.77 mM. […] In the hemolytic assay, soluble peptides are standardized to water and insoluble peptides standardized to DMSO.

[3] = Table 7, PEGylated and sarcosine/alanine substitution peptides
[4] = Table 5, sarcosine substitution peptides

Row | Compound | Hemolysis (%) [2] [%] | Solubility in water ([1]; Table 6, PEGylated PA peptides) | other results
1 | CC[C@H](C)[C@H](N)C(=O)N[C@@H](C)C(=O)N[C@@H](CC(C)C)C(=O)N[C@H](C(=O)N[C@@H](CC(C)C)C(=O)N[C@@H](C)C(=O)N1CCC[C@H]1C(=O)N[C@H](C(=O)N[C@@H](CS)C(=O)N[C@@H](CS)C(=O)N[C@@H](CCC(N)=O)C(=O)N[C@@H](C)C(=O)N[C@@H](CCCNC(=N)N)C(=O)N[C@@H](C)C(=O)N[C@@H](C)C(=O)NCCOCCOCCOCCOCCOCCOCCOCCOCCOCCOCCOCCOCCOCCOCCOCCOCCOCCOCCOCCOCCOCCOCCOCCOCCC(=O)O)[C@@H](C)CC)[C@@H](C)CC [E6AE12A-dPEG24] (H-IALILAPICCQARAA[PEG24]-OH; N-terminus assumed) | 4.95 |  | Solubility in water [1, 3]: Yes
2 | CC[C@H](C)[C@H](N)C(=O)N(C)CC(=O)N[C@@H](CC(C)C)C(=O)N[C@H](C(=O)N[C@@H](CC(C)C)C(=O)N[C@@H](CCC(=O)O)C(=O)N1CCC[C@H]1C(=O)N[C@H](C(=O)N[C@@H](CS)C(=O)N[C@@H](CS)C(=O)N[C@@H](CCC(N)=O)C(=O)N[C@@H](CCC(=O)O)C(=O)N[C@@H](CCCNC(=N)N)C(=O)N[C@@H](C)C(=O)N[C@@H](C)C(=O)O)[C@@H](C)CC)[C@@H](C)CC [PA-A2Sar] (H-I[Sar]LILEPICCQERAA-OH; N-terminus and C-terminus assumed) | 37.72 |  | Solubility in water [1, 4]: Yes
3 | CC[C@H](C)[C@H](N)C(=O)N[C@@H](C)C(=O)N[C@@H](CC(C)C)C(=O)N[C@H](C(=O)N[C@@H](CC(C)C)C(=O)N[C@@H](CCC(=O)O)C(=O)N1CCC[C@H]1C(=O)N[C@H](C(=O)N[C@@H](CS)C(=O)N[C@@H](CS)C(=O)N[C@@H](CCC(N)=O)C(=O)N[C@@H](CCC(=O)O)C(=O)N[C@@H](CCCNC(=N)N)C(=O)N(C)CC(=O)N[C@@H](C)C(=O)NCCOCCOCCOCCOCCOCCOCCOCCOCCOCCOCCOCCOCCOCCOCCOCCOCCOCCOCCOCCOCCOCCOCCOCCOCCC(=O)O)[C@@H](C)CC)[C@@H](C)CC [PA-A14Sar-dPEG24] | 3.68 |  | Solubility in water [1, 3]: Yes
4 | CC[C@H](C)[C@H](N)C(=O)N[C@@H](C)C(=O)N[C@@H](CC(C)C)C(=O)N[C@H](C(=O)N[C@@H](CC(C)C)C(=O)N[C@@H](CCC(=O)O)C(=O)N1CCC[C@H]1C(=O)N[C@H](C(=O)N[C@@H](CS)C(=O)N[C@@H](CS)C(=O)N[C@@H](CCC(N)=O)C(=O)N[C@@H](CCC(=O)O)C(=O)N[C@@H](CCCNC(=N)N)C(=O)N(C)CC(=O)N[C@@H](C)C(=O)O)[C@@H](C)CC)[C@@H](C)CC [PA-A14Sar] | 3.88 |  | Solubility in water [1, 4]: No
5 | CC[C@H](C)[C@H](N)C(=O)N[C@@H](C)C(=O)N[C@@H](CC(C)C)C(=O)N[C@H](C(=O)N[C@@H](CC(C)C)C(=O)N[C@@H](CCC(=O)O)C(=O)N1CCC[C@H]1C(=O)N[C@H](C(=O)N[C@@H](CS)C(=O)N[C@@H](CS)C(=O)N[C@@H](CCC(N)=O)C(=O)N[C@@H](CCC(=O)O)C(=O)N[C@@H](CCCNC(=N)N)C(=O)N[C@@H](C)C(=O)N(C)CC(=O)O)[C@@H](C)CC)[C@@H](C)CC [PA-A15Sar] | 21.68 |  | Solubility in water [1, 4]: No
6 | CC[C@H](C)[C@H](N)C(=O)N[C@@H](C)C(=O)N[C@@H](CC(C)C)C(=O)N[C@H](C(=O)N[C@@H](CC(C)C)C(=O)N[C@@H](CCC(=O)O)C(=O)N1CCC[C@H]1C(=O)N[C@H](C(=O)N(C)CC(=O)N[C@@H](C)C(=O)N[C@@H](CCC(N)=O)C(=O)N[C@@H](CCC(=O)O)C(=O)N[C@@H](CCCNC(=N)N)C(=O)N[C@@H](C)C(=O)N[C@@H](C)C(=O)O)[C@@H](C)CC)[C@@H](C)CC [PA-C9SarC10A] (H-IALILEPI[Sar]AQERAA-OH) | 99.37 |  | Solubility in water [1, 3]: Yes
7 | CC[C@H](C)[C@H](N)C(=O)N[C@@H](C)C(=O)N[C@@H](CC(C)C)C(=O)N[C@H](C(=O)N[C@@H](CC(C)C)C(=O)N[C@@H](CCC(=O)O)C(=O)N1CCC[C@H]1C(=O)N[C@H](C(=O)N[C@@H](CS)C(=O)N[C@@H](CS)C(=O)N[C@@H](CCC(N)=O)C(=O)N[C@@H](CCC(=O)O)C(=O)N[C@@H](CCCNC(=N)N)C(=O)N[C@@H](C)C(=O)N[C@@H](C)C(=O)NCCOCCOCCC(=O)O)[C@@H](C)CC)[C@@H](C)CC [PA-dPEG02] |  | Yes | 
8 | CC[C@H](C)[C@H](N)C(=O)N[C@@H](C)C(=O)N[C@@H](CC(C)C)C(=O)N[C@H](C(=O)N[C@@H](CC(C)C)C(=O)N[C@@H](CCC(=O)O)C(=O)N1CCC[C@H]1C(=O)N[C@H](C(=O)N[C@@H](CS)C(=O)N[C@@H](CS)C(=O)N[C@@H](CCC(N)=O)C(=O)N[C@@H](CCC(=O)O)C(=O)N[C@@H](CCCNC(=N)N)C(=O)N[C@@H](C)C(=O)N[C@@H](C)C(=O)NCCOCCOCCOCCC(=O)O)[C@@H](C)CC)[C@@H](C)CC [PA-dPEG03] |  | Yes | 
9 | CC[C@H](C)[C@H](N)C(=O)N[C@@H](C)C(=O)N[C@@H](CC(C)C)C(=O)N[C@H](C(=O)N[C@@H](CC(C)C)C(=O)N[C@@H](CCC(=O)O)C(=O)N1CCC[C@H]1C(=O)N[C@H](C(=O)N[C@@H](CS)C(=O)N[C@@H](CS)C(=O)N[C@@H](CCC(N)=O)C(=O)N[C@@H](CCC(=O)O)C(=O)N[C@@H](CCCNC(=N)N)C(=O)N[C@@H](C)C(=O)N[C@@H](C)C(=O)NCCOCCOCCOCCOCCC(=O)O)[C@@H](C)CC)[C@@H](C)CC [PA-dPEG04] |  | Yes | 
10 | CC[C@H](C)[C@H](N)C(=O)N[C@@H](C)C(=O)N[C@@H](CC(C)C)C(=O)N[C@H](C(=O)N[C@@H](CC(C)C)C(=O)N[C@@H](CCC(=O)O)C(=O)N1CCC[C@H]1C(=O)N[C@H](C(=O)N[C@@H](CS)C(=O)N[C@@H](CS)C(=O)N[C@@H](CCC(N)=O)C(=O)N[C@@H](CCC(=O)O)C(=O)N[C@@H](CCCNC(=N)N)C(=O)N[C@@H](C)C(=O)N[C@@H](C)C(=O)NCCOCCOCCOCCOCCOCCOCCC(=O)O)[C@@H](C)CC)[C@@H](C)CC [PA-dPEG06] |  | No | 
11 | CC[C@H](C)[C@H](N)C(=O)N[C@@H](C)C(=O)N[C@@H](CC(C)C)C(=O)N[C@H](C(=O)N[C@@H](CC(C)C)C(=O)N[C@@H](CCC(=O)O)C(=O)N1CCC[C@H]1C(=O)N[C@H](C(=O)N[C@@H](CS)C(=O)N[C@@H](CS)C(=O)N[C@@H](CCC(N)=O)C(=O)N[C@@H](CCC(=O)O)C(=O)N[C@@H](CCCNC(=N)N)C(=O)N[C@@H](C)C(=O)N[C@@H](C)C(=O)NCCOCCOCCOCCOCCOCCOCCOCCOCCC(=O)O)[C@@H](C)CC)[C@@H](C)CC [PA-dPEG08] |  | Yes | 
12 | CC[C@H](C)[C@H](N)C(=O)N[C@@H](C)C(=O)N[C@@H](CC(C)C)C(=O)N[C@H](C(=O)N[C@@H](CC(C)C)C(=O)N[C@@H](CCC(=O)O)C(=O)N1CCC[C@H]1C(=O)N[C@H](C(=O)N[C@@H](CS)C(=O)N[C@@H](CS)C(=O)N[C@@H](CCC(N)=O)C(=O)N[C@@H](CCC(=O)O)C(=O)N[C@@H](CCCNC(=N)N)C(=O)N[C@@H](C)C(=O)N[C@@H](C)C(=O)NCCOCCOCCOCCOCCOCCOCCOCCOCCOCCOCCOCCOCCC(=O)O)[C@@H](C)CC)[C@@H](C)CC [PA-dPEG12] |  | Yes | 
13 | CC[C@H](C)[C@H](N)C(=O)N[C@@H](C)C(=O)N[C@@H](CC(C)C)C(=O)N[C@H](C(=O)N[C@@H](CC(C)C)C(=O)N[C@@H](CCC(=O)O)C(=O)N1CCC[C@H]1C(=O)N[C@H](C(=O)N[C@@H](CS)C(=O)N[C@@H](CS)C(=O)N[C@@H](CCC(N)=O)C(=O)N[C@@H](CCC(=O)O)C(=O)N[C@@H](CCCNC(=N)N)C(=O)N[C@@H](C)C(=O)N[C@@H](C)C(=O)NCCOCCOCCOCCOCCOCCOCCOCCOCCOCCOCCOCCOCCOCCOCCOCCOCCC(=O)O)[C@@H](C)CC)[C@@H](C)CC [PA-dPEG16] |  | Yes | 
14 | CC[C@H](C)[C@H](N)C(=O)N[C@@H](C)C(=O)N[C@@H](CC(C)C)C(=O)N[C@H](C(=O)N[C@@H](CC(C)C)C(=O)N[C@@H](CCC(=O)O)C(=O)N1CCC[C@H]1C(=O)N[C@H](C(=O)N[C@@H](CS)C(=O)N[C@@H](CS)C(=O)N[C@@H](CCC(N)=O)C(=O)N[C@@H](CCC(=O)O)C(=O)N[C@@H](CCCNC(=N)N)C(=O)N[C@@H](C)C(=O)N[C@@H](C)C(=O)NCCOCCOCCOCCOCCOCCOCCOCCOCCOCCOCCOCCOCCOCCOCCOCCOCCOCCOCCOCCOCCC(=O)O)[C@@H](C)CC)[C@@H](C)CC [PA-dPEG20] |  | Yes | 
15 | CC[C@H](C)[C@H](N)C(=O)N[C@@H](C)C(=O)N[C@@H](CC(C)C)C(=O)N[C@H](C(=O)N[C@@H](CC(C)C)C(=O)N[C@@H](CCC(=O)O)C(=O)N1CCC[C@H]1C(=O)N[C@H](C(=O)N[C@@H](CS)C(=O)N[C@@H](CS)C(=O)N[C@@H](CCC(N)=O)C(=O)N[C@@H](CCC(=O)O)C(=O)N[C@@H](CCCNC(=N)N)C(=O)N[C@@H](C)C(=O)N[C@@H](C)C(=O)O)[C@@H](C)CC)[C@@H](C)CC [PA] |  |  | solubility in water / aqueous solutions [1]: low solubility; Solubility in water [1, 4]: No

Reference: US10005818B2, “Derivative peptide compounds and methods of use” (REALTA HOLDINGS, LLC, priority 2010, dated 2018)
